Here are results for 8 compounds from PubChem BioAssay (NCI).

What all share (assay): NCI-60 cell line screen, 48 h
In assay [1] the test system is HCC-2998 colon.
For assay [2], the system named is UACC-257 melanoma.
In assay [3] the test system is HS 578T breast.
Assay [4] concerns T-47D breast.
The subject of assay [5] is MDA-MB-435.
In assay [6] the test system is KM12 colon.
For assay [7], the system named is LOX IMVI melanoma.
The subject of assay [8] is HOP-92 NSCLC.
Assay [9] has as its system RPMI-8226 leukemia.
Assay [10] deals with EKVX NSCLC.

SMILES strings stand for the structures.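 The compound was tested at five concentrations on cells cultured in 96-well plates, with a 48-hour exposure period. GI50: concentration for 50% inhibition of growth. The concentration for full growth arrest is given as TGI.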 A value given as a limit tells only on which side of the number the result lay.

As to `Cc1noc(C)c1-c1ccc2[nH]c(=O)n3c2c1OC[C@@H]3c1ccccn1`, the GI50 was 2 µM in assay [1]; 3.92 µM in assay [2]; 0.254 µM in assay [3]; 0.585 µM in assay [4]; 3 µM in [5]; over 27.8 µM in assay [6]. For the same compound, the GI50 in assay [7] is 0.581 µM; in assay [8] it was 0.323 µM; in [9] it was 0.267 µM; in assay [10] it was 2.39 µM. The TGI in assay [1] was over 100 µM; in assay [2] it was over 100 µM; in assay [3], over 31.2 µM; in assay [4], over 100 µM; in [5], over 100 µM; in assay [6], over 100 µM. Besides, the TGI in [7] was over 32.1 µM; in [8] it was over 100 µM; in assay [9], over 20.2 µM; in assay [10], over 100 µM.
As to `CN(C)CCNC(=O)Nc1c(C#N)[n+]([O-])c2cc(Cl)c(Cl)cc2[n+]1[O-]`, the GI50 in [1] is 27.4 µM; in assay [2], 36.5 µM; in [3], 33.4 µM; in [4], 14.6 µM; in assay [5], 31 µM; in assay [6], 13.3 µM. The GI50 in [7] was 18.3 µM; in assay [8] it was 18.1 µM; in [9], 8.65 µM; in assay [10], 36.8 µM. Moreover, the TGI in [1] is over 100 µM; in assay [2], over 100 µM; in [3], over 100 µM; in assay [4], over 100 µM; in assay [5], over 100 µM; in assay [6], 43.1 µM. Moreover, the TGI is over 100 µM in assay [7], 99 µM in [8], over 100 µM in [9] and over 100 µM in assay [10].
Regarding `CCCCCCNc1nc(NCCCCCC)c2[nH]c(NCCCCCC)nc2n1`, the GI50 in assay [1] was 12.5 µM; in assay [2], 17 µM; in assay [3], 1.97 µM; in assay [4] it was 2.42 µM; in [5], 8.75 µM; in assay [6], 8.01 µM. The GI50 in assay [7] is 2.66 µM; in assay [8], 5.43 µM; in assay [9], 1.86 µM; in assay [10], 5.51 µM. Moreover, the TGI in assay [1] was 26.8 µM; in [2], 32.9 µM; in [3], 9.84 µM; in assay [4] it was 17.3 µM; in assay [5], 24.9 µM; in [6], 21.1 µM. Also, the TGI stood at 7.53 µM in assay [7], 16.9 µM in assay [8], 10.3 µM in assay [9] and 30 µM in assay [10].
With `C=CC(=O)N1CCN(c2ncnc3c(F)c(-c4c(O)cccc4F)c(Cl)cc23)CC1`, the GI50 in assay [1] was 17.5 µM; in [2] it was 14.4 µM; in assay [3] it was 19 µM; in assay [4], 10.2 µM; in assay [5], 10.3 µM; in assay [6], 11.7 µM. For the same compound, the GI50 was 12.6 µM in [7], 12.8 µM in assay [8], 5.69 µM in assay [9] and 15.1 µM in assay [10]. Besides, the TGI is 32.7 µM in assay [1]; 30.4 µM in [2]; 66.4 µM in assay [3]; 42.9 µM in assay [4]; 23.9 µM in assay [5]; 28 µM in [6]. Further, the TGI turned out to be 31 µM in assay [7], 33.6 µM in [8], 36.6 µM in assay [9] and 28.9 µM in assay [10].
As for `Clc1ccc(OCc2nnc3n2N=C(c2ccc(Cl)cc2Cl)CS3)c(Cl)c1`, the GI50 in [1] is 20.3 µM; in assay [2], 24 µM; in assay [3], 29.6 µM; in [4], 33 µM; in assay [5], 24.3 µM; in assay [6], 25.5 µM. Besides, the GI50 in assay [7] is 14.1 µM; in [8], 19.6 µM; in [9], 23.4 µM; in assay [10], 26.2 µM. Further, the TGI in assay [1] is 37.2 µM; in assay [2] it was 52 µM; in assay [3], over 100 µM; in [4], over 100 µM; in assay [5], over 100 µM; in assay [6] it was over 100 µM. In addition, the TGI in [7] came to 31 µM; in assay [8], 89.2 µM; in assay [9], 63.7 µM; in [10] it was 74.1 µM.
On to `COc1ccc2c(-c3cc4ccccc4o3)cc(=O)oc2c1`, for which the TGI is over 100 µM in [1]; over 100 µM in assay [2]; 43.6 µM in assay [3]; over 100 µM in assay [4]; over 100 µM in assay [5]; over 100 µM in [6]. Further, the TGI in assay [7] is over 100 µM; in [8], 75.3 µM; in [9] it was over 100 µM; in [10], over 100 µM.
As for `C[C@H]1CCC/C=C/[C@@H]2C[C@H](N)C[C@H]2[C@H](O)/C=C/C(=O)O1`, the GI50 was over 100 µM in assay [1]; over 100 µM in assay [2]; over 100 µM in assay [3]; over 100 µM in assay [4]; over 100 µM in [5]; 71.4 µM in assay [6]. The GI50 in assay [7], in assay [8], in assay [9] and in assay [10] was over 100 µM each time. Further, the TGI in assay [1], in assay [2], in assay [3], in [4], in assay [5] and in assay [6] was over 100 µM each time. Besides, the TGI in [7], in [8], in assay [9] and in assay [10] was over 100 µM throughout.
On to `COc1cc2c3c(n(CCCN4CCC(N)CC4)c(=O)c2cc1OC)-c1cc2c(cc1C3=O)OCO2`, for which the GI50 in [1] is 0.143 µM; in assay [2], 7.9 µM; in [3], 1.69 µM; in [4] it was 1.06 µM; in [5], 1.77 µM; in assay [6] it was 0.619 µM. For the same compound, the GI50 in [7] was 0.298 µM; in [8] it was 0.202 µM; in assay [9] it was 0.202 µM; in assay [10], 1.31 µM. The TGI in assay [1] was determined as 3.52 µM; in [2], 17.9 µM; in assay [3], 11.7 µM; in assay [4] it was 4 µM; in [5] it was 8.47 µM; in assay [6], 1.59 µM. The TGI is 1.02 µM in assay [7], 1.5 µM in [8], 1.02 µM in assay [9] and 3.87 µM in [10].
